Here are results for eight molecules from ChEMBL document CHEMBL3046489, “Synthesis of new, potent avermectin-like insecticidal agents” (Carbohydr Res, 2005).

Activity calls are given as the source filed them. No cut-off for these calls is given here.

For orientation: mortality means the percentage killed. Broadly, the LD50 is the dose at which mortality reaches 50%.

The test system of series [1] is Trichoplusia ni. As to the kind of experiment: Insecticidal activity against Trichoplusia ni (cabbage looper) assessed as mortality after 3 days by cabbage leaf dip bioassay. The class given is functional. Further details: concentration or dose not given beside the values.
Series [2] relates to Trichoplusia ni. Briefly: Insecticidal activity against Trichoplusia ni (cabbage looper) assessed as mortality after 2 days by cabbage leaf dip bioassay. The class given is functional, organism-based.
Series [3] can be described thus: Toxicity in Mus musculus ICR (mouse). The class given is organism-based. Particulars: in vivo.
In series [4] the test system is Trichoplusia ni. Briefly: Insecticidal activity against Trichoplusia ni (cabbage looper) assessed as mortality after 6 hr by cabbage leaf dip bioassay. Format: functional, organism-based.

For the molecule `CC[C@H](C)[C@H]1O[C@]2(C=C[C@@H]1C)C[C@@H]1C[C@@H](C/C=C(\C)[C@@H](O[C@H]3C[C@H](OC)[C@@H](O[C@@H]4C[C@@](C)(OC)[C@@H](OC(C)=O)[C@H](C)O4)[C@H](C)O3)[C@@H](C)/C=C/C=C3\CO[C@@H]4[C@H](O)C(C)=C[C@@H](C(=O)O1)[C@]34O)O2`, the mortality in the series with Trichoplusia ni [1] came to 72%.

For the molecule `CC[C@H](C)[C@H]1O[C@]2(C=C[C@@H]1C)C[C@@H]1C[C@@H](C/C=C(\C)[C@@H](O[C@H]3C[C@H](OC)[C@@H](O[C@H]4C[C@H](OC)[C@@H](O)[C@H](C)O4)[C@H](C)O3)[C@@H](C)/C=C/C=C3\CO[C@@H]4[C@H](O)C(C)=C[C@@H](C(=O)O1)[C@]34O)O2` [ABAMECTIN COMPONENT B1A], the result with Trichoplusia ni [2] was Active. Further, the mortality in the series on Trichoplusia ni [1] came out at 53%.

In series [3], `CC[C@H](C)[C@H]1O[C@]2(C=C[C@@H]1C)C[C@@H]1C[C@@H](C/C=C(\C)[C@@H](O[C@H]3C[C@H](OC)[C@@H](O[C@H]4O[C@@H](C)[C@@H](OC)[C@@H](OC)[C@@H]4OC)[C@H](C)O3)[C@@H](C)/C=C/C=C3\CO[C@@H]4[C@H](O)C(C)=C[C@@H](C(=O)O1)[C@]34O)O2` showed an LD50 of 87.5 mg/kg. Besides, the outcome in the series with Trichoplusia ni [4] was Active. The mortality in the series with Trichoplusia ni [1] came to 93%.

Take `CC[C@H](C)[C@H]1O[C@]2(C=C[C@@H]1C)C[C@@H]1C[C@@H](C/C=C(\C)[C@@H](O[C@H]3C[C@H](OC)[C@@H](O[C@@H]4C[C@@](C)(O)[C@@H](OC(C)=O)[C@H](C)O4)[C@H](C)O3)[C@@H](C)/C=C/C=C3\CO[C@@H]4[C@H](O)C(C)=C[C@@H](C(=O)O1)[C@]34O)O2`: the mortality with Trichoplusia ni [1] is 61%.

`CC[C@H](C)[C@H]1O[C@]2(C=C[C@@H]1C)C[C@@H]1C[C@@H](C/C=C(\C)[C@@H](O[C@H]3C[C@H](OC)[C@@H](O[C@H]4O[C@@H](C)[C@@H](O)[C@@H](O)[C@@H]4O)[C@H](C)O3)[C@@H](C)/C=C/C=C3\CO[C@@H]4[C@H](O)C(C)=C[C@@H](C(=O)O1)[C@]34O)O2`: in the series on Trichoplusia ni [1], the mortality is on record as 37%.

In turn, `CC[C@H](C)[C@H]1O[C@]2(C=C[C@@H]1C)C[C@@H]1C[C@@H](C/C=C(\C)[C@@H](O[C@H]3C[C@H](OC)[C@@H](O[C@@H]4C[C@@](C)(OC)[C@@H](O)[C@H](C)O4)[C@H](C)O3)[C@@H](C)/C=C/C=C3\CO[C@@H]4[C@H](O)C(C)=C[C@@H](C(=O)O1)[C@]34O)O2` returned an LD50 in series [3] of 17.5 mg/kg. Besides, the outcome in the series with Trichoplusia ni [4] was Active. Also, the mortality with Trichoplusia ni [1] is 93%.

Consider `CC[C@H](C)[C@H]1O[C@]2(C=C[C@@H]1C)C[C@@H]1C[C@@H](C/C=C(\C)[C@@H](O[C@H]3C[C@H](OC)[C@@H](O[C@@H]4C[C@@H](OC)[C@@H](NC)[C@@H](C)O4)[C@H](C)O3)[C@@H](C)/C=C/C=C3\CO[C@@H]4[C@H](O)C(C)=C[C@@H](C(=O)O1)[C@]34O)O2.O=C(O)c1ccccc1`, for which the outcome with Trichoplusia ni [2] was Active. In the series with Trichoplusia ni [1], the mortality was 90%.

As for `CC[C@H](C)[C@H]1O[C@]2(C=C[C@@H]1C)C[C@@H]1C[C@@H](C/C=C(\C)[C@@H](O[C@H]3C[C@H](OC)[C@@H](O[C@@H]4C[C@@](C)(OC)[C@@H](OC)[C@H](C)O4)[C@H](C)O3)[C@@H](C)/C=C/C=C3\CO[C@@H]4[C@H](O)C(C)=C[C@@H](C(=O)O1)[C@]34O)O2`, the mortality in the series with Trichoplusia ni [1] is on record as 85%.
